Like-named read-outs stand apart in the source and are kept apart here.
Experiments:
[1] = constant of the model, taken from literature; cited from earlier work
[2] = Deoxyribose assay for hydroxyl radical production; conditions: for effect on OH• production by copper: relative to Cu2+ alone
Excerpt: Hydroxyl radicals, which are generated in this assay by Fenton-like conditions of copper, ascorbic acid, and H2O2, degrade deoxyribose to give thiobarbituric acid (TBA)-reactive products with absorbance at 532 nm. Ligands added to the reaction mixture attenuate the amount of TBA-reactive species by altering the coordination environment around copper. […] The 2-deoxyribose assay was used to measure hydroxyl radical formation (Halliwell, B.; Gutteridge, […]. Anal. Biochem. 1987, 165, 215-219). A mixture of copper, ascorbic acid, and hydrogen peroxide generates hydroxyl radicals by Fenton-like chemistry. Hydroxyl radicals attack 2-deoxyribose to form malondialdehyde (MDA), which upon heating with TBA under acidic conditions produces a pink chromophore (λmax=532 nm). Chelators that prevent copper from reacting with ascorbic acid and hydrogen peroxide result in less chromophore formation. All assays were performed using 20 mM NaH2PO4 buffered to pH 7.4. The following reagents were added sequentially to obtain a 1 mL buffered solution with these final concentrations: chelator (10-20 μM), CuSO4 (10 μM), 2-deoxyribose (15 mM), H2O2 (100 μM), and ascorbic acid (2 mM). For photolyzed samples, 500 μM solutions of [Cu(OH2)(cage)] in 20 mM pH 7.4 NaH2PO4 buffer were photolyzed in screwtop quartz cuvettes for 4 min in the photoreactor, then immediately diluted into the deoxyribose reaction mixtures to obtain final concentrations of 10 μM in Cu. Stock solutions of CuSO4, ascorbic acid, and H2O2 were prepared fresh daily, other solutions were prepared weekly. […] The temperature was increased to 100° C. for 20 min, then cooled to room temperature and the absorbance at 532 nm was recorded. Values are reported as A/A0 where A0 is the absorbance without chelator present and A is the absorbance with chelator added. The value for CuSO4 alone is A/A0=1. Error bars represent standard deviations from measurements done in at least triplicate.

[3] = cited from earlier work
[4] = Potentiometric and pH-dependent spectrophotometric titrations of CuL; assay type: physicochemical; conditions: for Log β (overall stability constant): pH-dependent spectrophotometric titration, 25° C., 0.1 M NaClO4, Specfit, refined
Method: Cu(II) perchlorate solutions (0.1 M) were prepared from solid Cu(ClO4)2.6H2O and standardized with 0.05 M EDTA to a murexide endpoint in ammonia buffer. NaOH, HClO4, and NaClO4 solutions (0.1 M) were prepared with boiled nanopure deionized water and were degassed upon cooling to remove dissolved carbonate. NaOH solutions were standardized by titration with both 0.2 M HCl and potassium hydrogen phthalate to a phenolphthalein end point and were stored under Ar; HClO4 stock solutions were prepared from concentrated perchloric acid and standardized by titration with standard NaOH to a phenolphthalein end point. All solutions were degassed with Ar for 45 minutes prior to each experimental run.
Titrations were carried out at 25° C. with 0.1 M NaClO4 supporting electrolyte in a 3-mL cuvette equipped with a pH probe, titrator tip, and stir bar, and blanketed in Ar to preserve an inert environment. The glass-bulb probe (Orion combination pH electrode model 8103BN filled with 3 M NaCl) was calibrated with pH 4 and 7 standard reference buffers (RICCA Chemical Company). CuL solutions were prepared by dissolving [Cu(OH2)(cage)] recrystallized from methanol in 0.1 M NaClO4 to obtain CuL concentrations in the range of 0.5 mM. Initial volumes were between 2 and 2.2 mL. A Schott TITRONIC® 110 plus autotitrator kept under constant Ar sparge was used to deliver 2 to 4 μL aliquots of acid or base through the titrator tip into the reaction cuvette. The solutions were stirred constantly and allowed to equilibrate at least 30 s after each addition before data were collected. All titrations were carried out from low to high and from high to low pH with similar results.
Titration data for the CuL complex show two ionizable protons below pH 5.

[5] = Competition study of nitrilotriacetic acid (NTA) vs. cage for Cu2+; assay type: binding; conditions: competition with NTA, 50 mM HEPES pH 7.4, 25° C., refined
Method: Solutions of CuL (where L=cage^2−) were prepared by dissolving [Cu(OH2)cage] that was recrystallized from methanol into 50 mM HEPES (N-(2-hydroxyethyl)-piperazine-N′-2-ethanesulfonic acid) buffer, pH 7.4, with initial concentrations ranging from 03-1.5 mM. The reaction vessel was a 3-mL cuvette and initial solution volumes were 1 mL. All titrations were carried out at 25° C. Aliquots (1-2 μL) of the competitive chelator NTA (100 mM) were pipetted into CuL solutions and monitored spectrophotometrically. After each addition, solutions were manually mixed and equilibrated for 5 min before data were collected. Reported errors in log β were calculated from the standard deviation of three runs.

[6] = Photolysis with 350 nm UV light, followed by UV-vis and LC-MS; assay type: physicochemical; conditions: pH 7.4 phosphate buffer
Excerpt: The shift in the d-d band centered at 580 nm indicates a reorganization of the coordination sphere upon photolysis. The band for the intact Cu complex 2 disappears and is replaced by bands corresponding to the expected photoproducts 3 and 4, as confirmed by their mass spectra and by comparison to a picolinamide standard for 3. […] Reduction to Cu1+ is also possible as a result of photolysis, although it would likely reoxidize to Cu2+ under these experimental conditions.
All chemicals were purchased commercially and used without further purification. […] Elemental analysis was performed by Columbia Analytical Services, Inc. IR spectra were measured on a Nicolet 380 FT-IR. High-resolution, fast-atom bombardment (HR-FABMS) mass spectra were recorded on JEOL JMS-SX-102 instrument. […] A Varian Polaris C18 (150×1.0 mm) column was used and peaks were detected by UV absorption at 254 nm. […] UV-vis spectra were recorded on a Cary 50 UV-vis spectrophotometer. […]

[7] = Solubility of H2cage in solvents; assay type: physicochemical
Excerpt: A ligand H2cage is obtained in a one-pot, two-step synthesis starting from 3-amino-3-(2-nitrophenyl)propionic acid. […] In the presence of Cu2+, however, protons are released from H2cage at pH 3.3 and 4.8, consistent with deprotonation of both amides.

[8] = Potentiometric titration of the apo-ligand H2cage; assay type: physicochemical; conditions: pH range 2 to 12

In the case of `O=C(O)CN(CC(=O)O)CC(=O)O` [NTAH3], the “Log β” value [1] is listed as 13.76.
In the case of `O=C(O)CN(CC(=O)O)CC(=O)O` [NTA, nitrilotriacetic acid, reference compound], the “effect on OH• production by copper” value ([2]; pH 7.4) is given as “promotes OH• production” and the Kd ([3]; pH 7.4, read-out: KD for Cu2+) is given as 23 pM.
With `O=C1CC(c2ccccc2[N+](=O)[O-])[N](C(=O)c2ccccn2)[Cu]([OH])[N]1Cc1ccccn1` (stereo not shown) [[Cu(OH2)(cage)]] the Kd ([4]; pH 7.4, converted from log β, read-out: conditional dissociation constant, KD) was 16 pM, the “Log β (overall stability constant)” value [4] was 10.8 and the “Log β (overall stability constant)” value ([4]; listed as CuL) was 10.80 ± 0.01. For the same compound, the “Log β” value [5] was 10.79 ± 0.06, the “changes in UV-vis spectrum on exposure to UV light” value [6] was “apparent within seconds” and the “time of photolysis until cleavage of the ligand is complete” value ([6]; LC-MS) was no more than 4 min. For the same compound, the “OH• production after uncaging by UV photolysis” value ([2]; photolyzed for 4 min, increase in A532) was “increases OH• production”.
For `O=C(CC(NC(=O)c1ccccn1)c1ccccc1[N+](=O)[O-])NCc1ccccn1` (stereo not shown) [H2cage, Pyridine-2-carboxylic acid {1-(2-nitro-phenyl)-2-[(pyridine-2-ylmethyl)-carbamoyl]-ethyl}-amide], the “solubility in methanol and ethanol” value [7] was “very soluble”, the solubility in water [7] was “moderately soluble” and the “dissociable (ionizable) protons” value [8] was “no dissociable protons”. For the same compound, the “dissociable (ionizable) protons” value ([8]; listed as apo-ligand) was “no ionizable protons”, the “pH at which protons are released from H2cage, higher value” ([4]; in the presence of Cu2+) was 4.8 and the “pH at which protons are released from H2cage, lower value” ([4]; in the presence of Cu2+) was 3.3. The “protection of deoxyribose degradation” value ([2]; compared to background reaction of Cu2+ alone, pH 7.4) was 50%.
In the case of `NC(=O)c1ccccn1` [picolinamide], the “effect on OH• production by copper” value ([2]; pH 7.4) is given as “improve the catalytic properties of the metal”, the “log value for the 1:1 species” value ([3]; Cu2+ : ligand 1:1) is given as 2.87 and the “log value for the 1:2 species” value ([3]; Cu2+ : ligand 1:2) is given as 5.40.
In the case of `O=C(O)CN(CC(=O)O)CC(=O)O` [NTAH4], the “Log β” value [1] is listed as 14.76.
For `O=C([O-])CN(CC(=O)[O-])CC(=O)O.[Cu+2]` [Cu(NTA)], the “Log β” value [1] is listed as 12.7.

— patent publication US8440827B2, “Photolabile caged transition metal complexes and methods of using the same” (Duke University, priority 2008, dated 2013)
